Laboratory results from publication PMC10901950, “Neuroprotective and Anti-inflammatory Effects of Rubiscolin-6 Analogs with Proline Surrogates in Position 2” (Neurochemical Research, 2023).

Experiments:
AKT = experiment: Western blot, AKT phosphorylation in 6-OHDA-treated SH-SY5Y cells; format: cell-based, human; conditions: peptide 10 µM, 2.5-10 min, 6-OHDA 100 µM treated cells
Procedure: The neuroblastoma SH-SY5Y cells were grown in a 6-well plate and when 80–90% confluent treated with 6-OHDA (100 µM) for 24 h. Then cells were stimulated with peptides for 2.5, 5, 7.5 and 10 min (for AKT) or 24 h (for mTOR). When needed, a 30 min pre-incubation step with LY 294002 was included before analogs and 6-OHDA addition. Stimulation was terminated by aspiration of the medium. Cells were washed 2 times with ice-cold PBS, and then 200 µL of ice-cold lysis buffer [150 mM NaCl, 20 mM Tris–HCl, glycerol, 5 mM EDTA, 0.5 mM phenylmethylsulphonylfluoride (PMSF), 10% Triton X-100, 100 mM protease inhibitors, pH 7.4] was added. Cells were incubated on ice for 15 min. Lysates were then centrifuged at 12,000×g for 10 min at 4 °C, and the supernatants were used as the total cell lysates. The protein content in the supernatants was quantified using the Bio-Rad protein assay kit. Equal amounts of protein were separated on 10% sodium dodecyl sulfate (SDS)-polyacrylamide gels and transferred to polyvinylidene difluoride membranes from (PVDF, Millipore, Cork, Ireland). Non-specific binding was blocked with tris-buffered saline Tween-20 (TBS-T: 150 mM NaCl, 20 mM Tris–HCl, 0.1% Tween 20, pH 7.5) containing 5% nonfat milk for 2 h at room temperature. Then, the membrane was incubated overnight at 4 °C with one of the following specific primary antibodies: Vinculin (1:1000 dilution; Cell Signalling Technology, Danvers, MA, USA), p-AKT (1:1000 dilution; Cell Signalling Technology, Danvers, MA, USA), AKT (1:1000 dilution; Cell Signalling Technology, Danvers, MA, USA), p-mTOR (1:1000 dilution; Cell Signalling Technology, Danvers, MA, USA), mTOR (1:1000 dilution; Cell Signalling Technology, Danvers, MA, USA). After incubation, membranes were washed six times per 5 min with TBS-T. In the next step, membranes were incubated with HRP-conjugated secondary antibodies (1:1000 dilution; Cell Signalling Technology, Danvers, MA, USA) for 1 h. Following six washes with TBS-T, the protein bands were detected with the Clarity Western ECL reagent from Bio-Rad. The band intensity was quantified by NIH ImageJ densitometric analysis. For quantification, specific phosphorylation was calculated as the ratio of phosphorylated AKT or mTOR signals to the total Akt or mTOR signal detected. Values of unstimulated samples were set to 1.0. The original immunoblots are provided in Supplementary data.

SH-SY5Y cells [1] = experiment: Intracellular ROS production in 6-OHDA-treated SH-SY5Y cells; format: cell-based, human; conditions: 6-OHDA 100 µM
Procedure: (§1) The detection of ROS generated in injured cells was evaluated using the 5(6)-carboxy-2ʹ,7ʹ-dichlorofluorescein diacetate (carboxy-H2DCFDA) reagent (Invitrogen, Bleiswijk, Netherlands). After incubation, cells were washed with ice-cold Phosphate-Buffer Saline (PBS). Then, the carboxyl-H2DCFDA (100 µL, 20 µM) reagent was added and incubated for 1 h at 37 °C. Finally, the fluorescence intensity was measured at wavelengths of […], and ROS levels were presented in percentage of control (non-treated cells).

SH-SY5Y cells [2] = experiment: Neuroprotection in 6-OHDA-treated SH-SY5Y cells (MTT); format: cell-based, human; conditions: 6-OHDA 100 µM, 24 h, vehicle 100.00 ± 4.60%
Procedure: The neuroprotective experiments were performed in an in vitro model of a human neuroblastoma cell line (SH-SY5Y) obtained from the German Collection of Microorganisms and Cell Cultures GmbH (DSMZ) Bank (ACC 209). Cells were cultured in Dulbecco’s Modified Eagle’s Medium: Nutrient Mixture F12 (DMEM:F12) supplemented with 1% antibiotic/antimycotic (Amphotericin B, Penicillin and Streptomycin) (Biowest, Nuaillé, France) and 10% (v/v) Fetal Bovine Serum (FBS) (Biowest, Riverside, MO, USA). The anti-inflammatory experiments were performed in an in vitro model of mouse macrophage-like RAW 264.7 cells, purchased from American Type Culture Collection (ATCC, Manassas, VA, USA). Cells were maintained in DMEM medium (Gibco™, Grand Island, NY) and supplemented with 10% bovine calf serum (BCS) (Gibco™, Grand Island, NY) and 1% penicillin–streptomycin (Sigma-Aldrich, St. Louis, MO, USA). Cell cultures were kept at 37 °C in 5% CO2/humidified air.
Cells were incubated with peptides (0.1–10 µM) for 24 h to assess their cytotoxic activity. In the neuroprotective model, SH-SY5Y cells were exposed to 6-OHDA (100 µM) in the absence/presence of peptide at non-toxic concentrations (0.1–10 µM). When needed, a 30 min pre-incubation step with β-funaltrexamine (β-FNA, µ-opioid receptor antagonist, 10 µM), naltrindole (NLT, δ-opioid receptor antagonist, 10 µM), 2’-amino-3’-methoxyflavone (PD 98059, MAPK kinase 1 (MEK 1) inhibitor, 50 µM) or 2-(4-morpholinyl)-8-phenyl-4H-1-benzopyran-4-one (LY 294002, PI3-K inhibitor, 20 µM). Stimulation was terminated by aspiration of the medium and adding 100 µL MTT (1.2 mM) per well. Cells were incubated for 1 h at 37 °C. After this time, MTT was removed, and 100 µL DMSO was added. The resulting absorbance was read in a microplate reader (Biotek, Epoch/2 microplate reader, Winooski, VT, USA) at 570 nm.
Cell metabolic activity (cytotoxicity) was calculated as the percentage of the value obtained for cells incubated with compounds compared to control cells treated with the medium.

SH-SY5Y cells [3] = experiment: Mitochondrial membrane potential (JC-1) in 6-OHDA-treated SH-SY5Y cells; format: cell-based, human; conditions: 6-OHDA 100 µM, 6 h, JC-1
Procedure: Mitochondrial function was assessed by monitoring changes in MMP (∆Ψm) using the fluorescent probe, JC-1 fluorescence dye (5,5′,6,6′-tetrachloro-1,1′,3,3′-tetraethyl-imidacarbocyanine iodide, Molecular Probes, T3168, Eugene, Oregon, USA). The assay was performed according to the method described by Silva et al.. Briefly, SH-SY5Y cells were exposed 6 h to 6-OHDA (100 μM) in the presence or absence of peptides. After incubation, cells were washed with ice-cold PBS, and then JC-1 reagent (3 µM, 200 µL) was added for 15 min at 37 °C. Afterwards, JC-1 was removed, and cells were washed with PBS. The formation of JC-1 aggregates (490 nm of excitation and 590 nm of emission) and the monomeric form of JC-1 (490 nm of excitation and 530 nm of emission) was accompanied simultaneously in the plate reader for 30 min. Results were expressed as the ratio of the monomers/aggregates of JC-1 in the percentage of control.

Caspase-3 = Caspase-3 activity in 6-OHDA-treated SH-SY5Y cells; format: cell-based, human; conditions: STAU 1 µM, positive control
Procedure: Caspase-3 activity was assessed using “Caspase-3 fluorometric assay” (Sigma, St. Louis, MO, USA) with minor changes adapted by Silva et al.. The cells were treated with 6-OHDA (100 µM) for 6 h in the presence or absence of peptides. After this period, the culture medium was removed, and cells were rinsed with ice-cold PBS and collected by centrifugation at 3300×g for 5 min. The pellets were resuspended in lysis buffer, incubated for about 20 min on ice and finally centrifuged at 22,500×g, 4 °C, for 20 min. Cell lysates were processed following the manufacturer’s protocol, and fluorescence was read at wavelengths of 360 nm (excitation) and 460 nm (emission). Caspase-3 activity was calculated through the curve slope and presented as Δ fluorescence (a.u.)/mg of protein/min). Staurosporine (STAU, 1 µM) was used as positive control.

[4] = system: LPS-stimulated RAW 264.7 cells; experiment: Intracellular ROS formation in LPS-stimulated RAW 264.7 cells; format: cell-based, mouse; conditions: LPS 1 µg/mL
Procedure: The cytotoxic and anti-inflammatory effects of peptides on RAW 264.7 cells were estimated using MTT assay. Cells were incubated with peptides (0.1–10 µM) for 24 h to assess their cytoprotective activity. In the anti-inflammatory model, RAW 264.7 cells were exposed to LPS (Millipore Sigma, Darmstadt, Germany) at 1 µg/mL in the absence/presence of peptide at non-toxic concentrations (0.1–10 µM). Then, the MTT reagent was added to wells, and cells were incubated for 1.5 h at 37 °C. After this time, MTT was removed, 100 µL DMSO was added, and the resulting absorbance was read in a microplate reader (Synergy 2 BioTek Microplate Reader, Winooski, VT, USA) at 570 nm.
as §1

[5] = system: LPS-stimulated RAW 264.7 cells; experiment: Nitric oxide production in LPS-stimulated RAW 264.7 cells (Griess); format: cell-based, mouse; conditions: LPS 1 µg/mL
Procedure: The level of NO production was determined in RAW 264.7 cells. Briefly, after cells attachment, they were treated with LPS (Millipore Sigma, Darmstadt, Germany) at 1 µg/mL for 24 h, and then the peptides were added for an additional 24 h. After cells’ treatment, the medium was collected, and the accumulation of NO metabolite in the cell culture supernatant was measured using Griess reagent (1% sulfanilamide and 0.1% naphthylethylenediamine dihydrochloride; Sigma Aldrich), where 50 µL of the supernatant was mixed with 50 µL of Griess reagent (40 mg/mL) in a 96-well plate. After incubation at room temperature and darkness for 10 min, the absorbance was measured at 540 nm. Cells treated with LPS without samples were used as the positive control of the inflammatory response.

Molecule: NCCc1cc(O)c(O)cc1O [6-OHDA, 6-hydroxydopamine, reference compound]
- AKT phosphorylation (AKT): blocked
- increase of ROS levels compared with vehicle (SH-SY5Y cells [1]): around 80%
- viable cells after 6-OHDA exposure (SH-SY5Y cells [2]): 48.63 ± 1.25 % of viable cells
- increase of MMP depolarization compared to vehicle (SH-SY5Y cells [3]): 114%

Molecule: CN[C@@H]1C[C@H]2O[C@@](C)([C@@H]1OC)n1c3ccccc3c3c4c(c5c6ccccc6n2c5c31)C(=O)NC4 [STAU, Staurosporine, reference compound]
- effect on Caspase-3 activity (Caspase-3): marked increase

Molecule: lipopolysaccharide [LPS, reference compound]
- ROS level compared to the control [4]: increased almost twice
- NO levels compared to the unstimulated control [5]: exceeded 330%
